Experimental data from PubChem BioAssay AID330 (DTP/NCI, 2004).
Where “and” joins values, the source holds several entries; their conditions need not be identical. Equal entries are not always repeated. Toxic doses and inconclusive results are not listed. Rule for the calls: active = survival T/C of 150% or more; inactive = T/C below 125% in these data.

System: P388 leukemia ip, CD2F1 mice, survival T/C
Assay: NCI In Vivo Anticancer Drug Screen. Data for tumor model P388 Leukemia (intraperitoneal) in CD2F1 (CDF1) mice
Settings: endpoint: median survival time, higher = longer survival
Summary of the method: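 Mice carrying the transplanted tumor received test compound or vehicle. Survival was recorded in each group, and the value is the treated-group measurement divided by that of the vehicle-treated control group.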

[1] = dose: 60.0 mg/kg/injection, schedule: Q01DX005 (ip), vehicle: saline with Tween-80
[2] = dose: 120.0 mg/kg/injection, schedule: Q01DX005 (ip), vehicle: saline with Tween-80
[3] = dose: 240.0 mg/kg/injection, schedule: Q01DX005 (ip), vehicle: saline with Tween-80
[4] = dose: 50.0 mg/kg/injection, schedule: Q01DX005 (ip), vehicle: saline with Tween-80
[5] = dose: 100.0 mg/kg/injection, schedule: Q01DX005 (ip), vehicle: saline with Tween-80
[6] = dose: 50.0 mg/kg/injection, schedule: Q01DX009 (ip), vehicle: saline with Tween-80
[7] = dose: 100.0 mg/kg/injection, schedule: Q01DX009 (ip), vehicle: saline with Tween-80
[8] = dose: 200.0 mg/kg/injection, schedule: Q01DX009 (ip), vehicle: saline with Tween-80
[9] = dose: 50.0 mg/kg/injection, schedule: Q01DX005 (ip), vehicle: saline
[10] = dose: 100.0 mg/kg/injection, schedule: Q01DX005 (ip), vehicle: saline
[11] = dose: 200.0 mg/kg/injection, schedule: Q01DX005 (ip), vehicle: saline
[12] = dose: 100.0 mg/kg/injection, schedule: Q04DX002 (ip), vehicle: saline with Tween-80

Measured: T/C

COC(=O)c1nc(=S)[nH]c(C(=O)OC)c1C(=O)c1ccc(C)cc1
inactive: [1] 106 % of control | [2] 100 % of control | [3] 100 % of control

COc1ccc(OC)c(NC(=O)NC(c2ccccc2)c2ccccc2)c1
inactive: dose: 3.12 mg/kg/injection, schedule: Q01DX009 (ip), vehicle: Klucel (hydroxypropylcellulose) (HPC) 96 % of control | dose: 6.25 mg/kg/injection, schedule: Q01DX009 (ip), vehicle: Klucel (hydroxypropylcellulose) (HPC) 90 % of control | dose: 200.0 mg/kg/injection, schedule: Q01DX009 (ip), vehicle: Klucel (hydroxypropylcellulose) (HPC) 93 % of control

CC(C)C1=CC2C3C(=O)NC(=O)C3C1C1C3C(=O)NC(=O)C3C21 (centres undefined)
inactive: dose: 60.0 mg/kg/injection, schedule: Q01DX005 (ip), vehicle: saline 98 % of control | dose: 120.0 mg/kg/injection, schedule: Q01DX005 (ip), vehicle: saline 100 % of control | dose: 240.0 mg/kg/injection, schedule: Q01DX005 (ip), vehicle: saline 100 % of control

CCC(CC)(C(=O)Nc1ccc2[nH]c3ccccc3c(=O)c2c1)C(=O)Nc1ccc2[nH]c3ccccc3c(=O)c2c1
inactive: [4] 97 % of control | [5] 105 % of control | dose: 200.0 mg/kg/injection, schedule: Q01DX005 (ip), vehicle: saline with Tween-80 99 % of control

C(#Cc1c2ccccc2c(C#Cc2ccccc2)c2c(-c3ccccc3)cccc12)c1ccccc1
inactive: [4] 97 % of control | [5] 87 % of control

Cc1cc(OP2(=O)Nc3ccccc3-c3ccccc3N2)ccc1Cl
inactive: [4] 98 % of control | [5] 89 % of control

COc1cc(C(=O)NNC(=O)C2CCC(=O)N2Cc2ccccc2)cc(OC)c1OC (centres undefined)
inactive: [1] 89 % of control | [2] 90 % of control | [3] 87 % of control

CC(NC(=O)OCc1ccccc1)C(=O)NC(Cc1c[nH]c2ccccc12)C(=O)O (centres undefined)
inactive: dose: 50.0 mg/kg/injection, schedule: Q01DX005 (ip), vehicle: Klucel (hydroxypropylcellulose) (HPC) 99 % of control | dose: 100.0 mg/kg/injection, schedule: Q01DX005 (ip), vehicle: Klucel (hydroxypropylcellulose) (HPC) 97 % of control | dose: 200.0 mg/kg/injection, schedule: Q01DX005 (ip), vehicle: Klucel (hydroxypropylcellulose) (HPC) 95 % of control

C1SSCSSS1
inactive: [6] 115 % of control | [7] 117 % of control | [8] 111 % of control

CCCCCCCCC1SC1CCCCCCCC(=O)OCC1CS1 (centres undefined)
inactive: dose: 100.0 mg/kg/injection, schedule: Q01DX001 (ip), vehicle: other 100 % of control | dose: 200.0 mg/kg/injection, schedule: Q01DX001 (ip), vehicle: other 100 % of control | dose: 400.0 mg/kg/injection, schedule: Q01DX001 (ip), vehicle: other 100 % of control

Cc1cc2nc(CN(CCO)CCO)[nH]c2cc1C
inactive: [9] 100 % of control | [10] 98 % of control | [11] 98 % of control

COc1cccc2c1[C@@]1(C)C3C(=O)OC(C)(c4ccccc43)[C@@]1(C)C2=O (some centres undefined)
inactive: [1] 108 % of control | [2] 110 % of control | [3] 103 % of control

c1cc(OCC2CO2)ccc1OCC1CO1 (centres undefined)
inactive: dose: 12.5 mg/kg/injection, schedule: Q01DX009 (ip), vehicle: saline with Tween-80 95 % of control | dose: 25.0 mg/kg/injection, schedule: Q01DX009 (ip), vehicle: saline with Tween-80 96 % of control | [6] 113 % of control | [7] 108 % of control and 111 % of control | dose: 100.0 mg/kg/injection, schedule: Q04DX003 (ip), vehicle: saline sonified 100 % of control | [8] 108 % of control | dose: 200.0 mg/kg/injection, schedule: Q04DX003 (ip), vehicle: saline sonified 104 % of control | dose: 264.0 mg/kg/injection, schedule: Q04DX003 (ip), vehicle: saline with Tween-80 118 % of control | dose: 400.0 mg/kg/injection, schedule: Q01DX009 (ip), vehicle: saline with Tween-80 112 % of control | dose: 600.0 mg/kg/injection, schedule: Q04DX003 (ip), vehicle: saline with Tween-80 113 % of control

CNC[C@@H](O)c1ccc(O)c(O)c1
inactive: dose: 0.78 mg/kg/injection, schedule: Q01DX009 (ip), vehicle: suspension in saline 97 % of control | dose: 1.56 mg/kg/injection, schedule: Q01DX009 (ip), vehicle: suspension in saline 104 % of control | dose: 3.12 mg/kg/injection, schedule: Q01DX009 (ip), vehicle: suspension in saline 104 % of control

COC1NC(=O)N(C)N(C)C1=O (centres undefined)
inactive: [9] 100 % of control | [10] 99 % of control | [11] 100 % of control

COc1cc2c(c(OC)c1OC)-c1ccc(OC)c(=O)cc1[C@@H](N(C)C)CC2
inactive: dose: 1.25 mg/kg/injection, schedule: Q01DX009 (ip), vehicle: Klucel (hydroxypropylcellulose) (HPC) 100 % of control | dose: 2.5 mg/kg/injection, schedule: Q01DX009 (ip), vehicle: Klucel (hydroxypropylcellulose) (HPC) 107 % of control | dose: 5.0 mg/kg/injection, schedule: Q01DX009 (ip), vehicle: Klucel (hydroxypropylcellulose) (HPC) 112 % of control and 117 % of control | dose: 10.0 mg/kg/injection, schedule: Q01DX009 (ip), vehicle: Klucel (hydroxypropylcellulose) (HPC) 118 % of control and 124 % of control

C[n+]1ccc(CCNC2CCC(N=NC3CCC([N+](=O)[O-])CC3)CC2)cc1 (centres undefined)
inactive: dose: 50.0 mg/kg/injection, schedule: Q01DX009 (ip), vehicle: saline 105 % of control and 92 % of control | dose: 100.0 mg/kg/injection, schedule: Q01DX009 (ip), vehicle: saline 108 % of control | dose: 200.0 mg/kg/injection, schedule: Q01DX009 (ip), vehicle: saline 102 % of control and 118 % of control

NS(=O)(=O)Oc1ccccc1C(=O)Oc1ccccc1Cl
inactive: dose: 60.0 mg/kg/injection, schedule: Q01DX005 (ip), vehicle: Klucel (hydroxypropylcellulose) (HPC) 99 % of control | dose: 120.0 mg/kg/injection, schedule: Q01DX005 (ip), vehicle: Klucel (hydroxypropylcellulose) (HPC) 99 % of control | dose: 240.0 mg/kg/injection, schedule: Q01DX005 (ip), vehicle: Klucel (hydroxypropylcellulose) (HPC) 94 % of control

C=CCC(C(=C)Sc1ccccc1)S(=O)(=O)c1ccccc1 (centres undefined)
inactive: [12] 115 % of control | dose: 200.0 mg/kg/injection, schedule: Q04DX002 (ip), vehicle: saline with Tween-80 109 % of control | dose: 400.0 mg/kg/injection, schedule: Q04DX002 (ip), vehicle: saline with Tween-80 105 % of control

OC(c1cccnc1)C(CCc1ccccn1)c1ccccn1 (centres undefined)
inactive: dose: 100.0 mg/kg/injection, schedule: Q04DX003 (ip), vehicle: saline 102 % of control | dose: 200.0 mg/kg/injection, schedule: Q04DX003 (ip), vehicle: saline 101 % of control | dose: 400.0 mg/kg/injection, schedule: Q04DX003 (ip), vehicle: saline 91 % of control

Cc1ccc(S(=O)(=O)N/N=C/c2cc([N+](=O)[O-])cc(I)c2O)cc1
inactive: dose: 12.5 mg/kg/injection, schedule: Q01DX005 (ip), vehicle: distilled water + Tween-80 102 % of control | dose: 25.0 mg/kg/injection, schedule: Q01DX005 (ip), vehicle: distilled water + Tween-80 109 % of control | dose: 50.0 mg/kg/injection, schedule: Q01DX005 (ip), vehicle: distilled water + Tween-80 98 % of control and 112 % of control | dose: 100.0 mg/kg/injection, schedule: Q01DX005 (ip), vehicle: distilled water + Tween-80 98 % of control and 102 % of control | dose: 200.0 mg/kg/injection, schedule: Q01DX005 (ip), vehicle: distilled water + Tween-80 122 % of control and 95 % of control | dose: 400.0 mg/kg/injection, schedule: Q01DX005 (ip), vehicle: distilled water + Tween-80 93 % of control
